Data set [1] in a line: Resistance to serum degradation: peptides incubated with human serum at 37 C, then tested for receptor activation. The note with it: pooled normal human serum or pooled complement-preserved human serum, in vitro. How it is done:
(§1) Vector, transfection, and receptor-activation assay. […] The treated peptides were frozen at −80 C before testing with transfected cells. Receptor-activation activities were assayed based on cAMP production in transfected cells, and were performed as described44. The receptor-activation results were analyzed using the GraphPad Prism 5 package.

In the next data set the target is T1, GIP receptor (GIPR) (Homo sapiens, UniProt P48546).
T1 construct: host or cells: HEK293T
T1 sequence (P48546 22-466): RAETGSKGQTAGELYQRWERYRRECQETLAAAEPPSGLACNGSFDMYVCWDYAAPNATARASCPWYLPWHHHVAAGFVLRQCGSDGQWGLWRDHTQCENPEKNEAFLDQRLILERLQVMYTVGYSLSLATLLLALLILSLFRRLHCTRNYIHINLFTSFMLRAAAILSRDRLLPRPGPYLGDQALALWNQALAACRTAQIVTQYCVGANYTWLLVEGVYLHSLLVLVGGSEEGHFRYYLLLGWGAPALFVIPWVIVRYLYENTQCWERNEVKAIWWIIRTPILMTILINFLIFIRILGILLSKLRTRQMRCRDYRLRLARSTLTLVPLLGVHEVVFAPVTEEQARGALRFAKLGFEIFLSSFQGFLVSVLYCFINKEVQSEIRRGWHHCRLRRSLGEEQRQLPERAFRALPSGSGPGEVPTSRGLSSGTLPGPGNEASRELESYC
In words: Receptor-activation assay: cAMP production in HEK293T cells expressing recombinant GIP receptor. The data set is classed as cell-based. The conditions noted are these: for EC50: EC50 values (-Log EC50, mean ± SEM). How it is done:
as §1

The subject of data set [2] is fasting Sprague-Dawley rats. The data set is described as follows: In vivo glucose suppression assay. Further details: species or system rat. The note with it: for blood glucose after exogenous glucose: 100 nmoles/kg peptide with glucose 3.8 g/kg intraperitoneal, 1 hr after injection. On the procedure: The in vivo glucose suppression assay. Eight-week-old Sprague-Dawley rats were fasted overnight for 20 hours. […] Bloods were obtained via the tail vein at select time points after intraperitoneal injection of glucose with a peptide. Glucose levels in the blood were measured by an OneTouch Ultra Blood Glucose Monitoring System and OneTouch Ultra Test Strips (Johnson and Johnson).

In data set [3] the target is T2, recombinant wild type GIP receptor (GIPR) expressed in HEK293T cells (Homo sapiens (Human), UniProt P48546).
T2 sequence: T1 sequence (P48546 22-466)
The data set is described as follows: cell-based or functional assay.

Data set [4] deals with T2, recombinant wild type GIP receptor …. The data set is described as follows: cell-based or functional assay. The source holds these as a separate data set.

Positions count from the first letter of the chain named.

Consider `CC[C@H](C)[C@H](NC(=O)[C@H](CO)NC(=O)[C@H](Cc1ccc(O)cc1)NC(=O)[C@H](CC(=O)O)NC(=O)[C@H](CO)NC(=O)[C@@H](NC(=O)[C@H](Cc1ccccc1)NC(=O)[C@@H](NC(=O)CNC(=O)[C@H](CCC(=O)O)NC(=O)[C@H](C)NC(=O)[C@@H](N)Cc1ccc(O)cc1)[C@@H](C)O)[C@@H](C)CC)C(=O)N[C@@H](C)C(=O)N[C@@H](CCSC)C(=O)N[C@@H](CC(=O)O)C(=O)N[C@@H](CCCCN)C(=O)N[C@H](C(=O)N[C@@H](Cc1c[nH]cn1)C(=O)N[C@@H](CCC(N)=O)C(=O)N[C@@H](CCC(N)=O)C(=O)N[C@@H](CC(=O)O)C(=O)N[C@@H](Cc1ccccc1)C(=O)N[C@H](C(=O)N[C@@H](CC(N)=O)C(=O)N[C@@H](Cc1c[nH]c2ccccc12)C(=O)N[C@@H](CC(C)C)C(=O)N[C@@H](CC(C)C)C(=O)N[C@@H](C)C(=O)N[C@@H](CCC(N)=O)C(=O)N[C@@H](CCCCN)C(=O)NCC(=O)N[C@@H](CCCCN)C(=O)N[C@@H](CCCCN)C(=O)N[C@@H](CC(N)=O)C(=O)N[C@@H](CC(=O)O)C(=O)N[C@@H](Cc1c[nH]c2ccccc12)C(=O)N[C@@H](CCCCN)C(=O)N[C@@H](Cc1c[nH]cn1)C(=O)N[C@@H](CC(N)=O)C(=O)N[C@H](C(=O)N[C@H](C(=O)N[C@@H](CCC(N)=O)C(=O)N[C@@H](CCCNC(=N)N)C(=O)N[C@@H](CCC(=O)O)C(=O)N[C@@H](C)C(=O)N[C@@H](CCCNC(=N)N)C(=O)N[C@@H](C)C(=O)N[C@@H](CC(C)C)C(=O)N[C@@H](CCC(=O)O)C(=O)N[C@@H](CC(C)C)C(=O)N[C@@H](C)C(=O)NCC(=O)N[C@@H](CCC(N)=O)C(=O)N[C@@H](C)C(=O)N[C@@H](CC(N)=O)C(=O)O)[C@@H](C)O)[C@@H](C)CC)C(C)C)[C@@H](C)CC` [GIP55G], for which the “resistance to degradation by human serum, relative to GIP” value in data set [1] is recorded as “significantly more resistant to degradation”.

By EC50 is commonly meant the concentration at which the effect is half-maximal. `CC[C@H](C)[C@H](NC(=O)[C@H](CO)NC(=O)[C@H](Cc1ccc(O)cc1)NC(=O)[C@H](CC(=O)O)NC(=O)[C@H](CO)NC(=O)[C@@H](NC(=O)[C@H](Cc1ccccc1)NC(=O)[C@@H](NC(=O)CNC(=O)[C@H](CCC(=O)O)NC(=O)[C@H](C)NC(=O)[C@@H](N)Cc1ccc(O)cc1)[C@@H](C)O)[C@@H](C)CC)C(=O)N[C@@H](C)C(=O)N[C@@H](CCSC)C(=O)N[C@@H](CC(=O)O)C(=O)N[C@@H](CCCCN)C(=O)N[C@H](C(=O)N[C@@H](Cc1c[nH]cn1)C(=O)N[C@@H](CCC(N)=O)C(=O)N[C@@H](CCC(N)=O)C(=O)N[C@@H](CC(=O)O)C(=O)N[C@@H](Cc1ccccc1)C(=O)N[C@H](C(=O)N[C@@H](CC(N)=O)C(=O)N[C@@H](Cc1c[nH]c2ccccc12)C(=O)N[C@@H](CC(C)C)C(=O)N[C@@H](CC(C)C)C(=O)N[C@@H](C)C(=O)N[C@@H](CCC(N)=O)C(=O)N[C@@H](CCCCN)C(=O)NCC(=O)N[C@@H](CCCCN)C(=O)N[C@@H](CCCCN)C(=O)N[C@@H](CC(N)=O)C(=O)N[C@@H](CC(=O)O)C(=O)N[C@@H](Cc1c[nH]c2ccccc12)C(=O)N[C@@H](CCCCN)C(=O)N[C@@H](Cc1c[nH]cn1)C(=O)N[C@@H](CC(N)=O)C(=O)N[C@H](C(=O)N[C@H](C(=O)N[C@@H](CCC(N)=O)C(=O)N[C@@H](CCCNC(=N)N)C(=O)N[C@@H](CCC(=O)O)C(=O)N[C@@H](C)C(=O)N[C@@H](CCCNC(=N)N)C(=O)N[C@@H](C)C(=O)N[C@@H](CC(C)C)C(=O)N[C@@H](CCC(=O)O)C(=O)N[C@@H](CC(C)C)C(=O)N[C@@H](C)C(=O)N[C@@H](CO)C(=O)N[C@@H](CCC(N)=O)C(=O)N[C@@H](C)C(=O)N[C@@H](CC(N)=O)C(=O)O)[C@@H](C)O)[C@@H](C)CC)C(C)C)[C@@H](C)CC` [GIP55S]: the ranking of potency result at GIP receptor (GIPR) (0 hr of human serum treatment (normal or complement preserved)) is given as “GIP>GIP55G>GIP55S”; on GIP receptor (GIPR) (6 hr after treatment with human serum (normal or complement preserved)) it was “GIP=GIP55G=GIP55S”; at GIP receptor (GIPR) (12 hr after treatment with human serum (normal or complement preserved)) it was “GIP55G>GIP55S≧GIP”. For the same molecule, at GIP receptor (GIPR) (EC50 compared with GIP, no serum treatment), the “lower potency relative to conventional GIP” value is about 3 fold. The EC50 was 3.72 nM on GIP receptor (GIPR) (with pooled complement preserved human serum, 0 hours of incubation); 3.24 nM at GIP receptor (GIPR) (with pooled complement preserved human serum, 3 hours of incubation); 16.2 nM at GIP receptor (GIPR) (with pooled complement preserved human serum, 6 hours of incubation); 75.9 nM on GIP receptor (GIPR) (with pooled complement preserved human serum, 12 hours of incubation); 2.75 nM on GIP receptor (GIPR) (with pooled human serum, 0 hours of incubation); 4.57 nM on GIP receptor (GIPR) (with pooled human serum, 3 hours of incubation). Moreover, the EC50 is 18.2 nM on GIP receptor (GIPR) (with pooled human serum, 6 hours of incubation) and 41.7 nM on GIP receptor (GIPR) (with pooled human serum, 12 hours of incubation). On GIP receptor (GIPR) (cells treated with synthetic peptides for 12 hr, total cAMP in cell lysates), the “cAMP production in GIP receptor-expressing HEK293T cells” value is listed as “dose-dependent increases of cAMP production”. Further, the “resistance to degradation by human serum, relative to GIP” value in data set [1] was “significantly more resistant to degradation”. Besides, the “blood glucose after exogenous glucose” value in data set [2] is “reduced glucose contents in the blood to basal levels”. Moreover, the suppression of hyperglycemia result in data set [2] (compared with conventional mature GIP) is recorded as “suppress hyperglycemias to similar extents”.

Turning to `CC[C@H](C)[C@H](NC(=O)[C@H](CO)NC(=O)[C@H](Cc1ccc(O)cc1)NC(=O)[C@H](CC(=O)O)NC(=O)[C@H](CO)NC(=O)[C@@H](NC(=O)[C@H](Cc1ccccc1)NC(=O)[C@@H](NC(=O)CNC(=O)[C@H](CCC(=O)O)NC(=O)[C@H](C)NC(=O)[C@@H](N)Cc1ccc(O)cc1)[C@@H](C)O)[C@@H](C)CC)C(=O)N[C@@H](C)C(=O)N[C@@H](CCSC)C(=O)N[C@@H](CC(=O)O)C(=O)N[C@@H](CCCCN)C(=O)N[C@H](C(=O)N[C@@H](Cc1c[nH]cn1)C(=O)N[C@@H](CCC(N)=O)C(=O)N[C@@H](CCC(N)=O)C(=O)N[C@@H](CC(=O)O)C(=O)N[C@@H](Cc1ccccc1)C(=O)N[C@H](C(=O)N[C@@H](CC(N)=O)C(=O)N[C@@H](Cc1c[nH]c2ccccc12)C(=O)N[C@@H](CC(C)C)C(=O)N[C@@H](CC(C)C)C(=O)N[C@@H](C)C(=O)N[C@@H](CCC(N)=O)C(=O)N[C@@H](CCCCN)C(=O)NCC(=O)N[C@@H](CCCCN)C(=O)N[C@@H](CCCCN)C(=O)N[C@@H](CC(N)=O)C(=O)N[C@@H](CC(=O)O)C(=O)N[C@@H](Cc1c[nH]c2ccccc12)C(=O)N[C@@H](CCCCN)C(=O)N[C@@H](Cc1c[nH]cn1)C(=O)N[C@@H](CC(N)=O)C(=O)N[C@H](C(=O)N[C@H](C(=O)N[C@@H](CCC(N)=O)C(=O)O)[C@@H](C)O)[C@@H](C)CC)C(C)C)[C@@H](C)CC` [GIP, Gastric inhibitory polypeptide, reference compound], the “blood glucose after exogenous glucose” value in data set [2] was “reduced glucose contents in the blood to basal levels”.

B1: GIP55G, extended 55-amino-acid GIP isoform encoded by the derived G-44394131 allele (G103) (ligand)
peptide: YAEGTFISDYSIAMDKIHQQDFVNWLLAQKGKKNDWKHNITQREARALELAGQAN
Consider B1, for which the “EC50 of cAMP production in GIPR-expressing HEK293T cells” value in data set [3] stood at 3.2 nM. Moreover, in data set [4], the “-Log EC50 of cAMP production; peptide incubated 0 hr with pooled complement preserved human serum” value was 8.51 -Log EC50, the “-Log EC50 of cAMP production; peptide incubated 0 hr with pooled human serum” value is 8.47 -Log EC50, the “-Log EC50 of cAMP production; peptide incubated 3 hr with pooled complement preserved human serum” value was 8.22 -Log EC50 and the “-Log EC50 of cAMP production; peptide incubated 3 hr with pooled human serum” value is 8.32 -Log EC50. In data set [4], the “-Log EC50 of cAMP production; peptide incubated 6 hr with pooled complement preserved human serum” value is 7.88 -Log EC50, the “-Log EC50 of cAMP production; peptide incubated 6 hr with pooled human serum” value is 8.02 -Log EC50, the “-Log EC50 of cAMP production; peptide incubated 12 hr with pooled complement preserved human serum” value was 7.86 -Log EC50 and the “-Log EC50 of cAMP production; peptide incubated 12 hr with pooled human serum” value was 7.93 -Log EC50.

B2: GIP55S, extended 55-amino-acid GIP isoform encoded by the ancestral A-44394131 allele (S103) (ligand)
peptide: B1 peptide with G52S
Consider B2, for which, in data set [3], the “EC50 of cAMP production in GIPR-expressing HEK293T cells” value was 2.6 nM. Besides, in data set [4], the “-Log EC50 of cAMP production; peptide incubated 0 hr with pooled complement preserved human serum” value is 8.43 -Log EC50, the “-Log EC50 of cAMP production; peptide incubated 0 hr with pooled human serum” value was 8.56 -Log EC50, the “-Log EC50 of cAMP production; peptide incubated 3 hr with pooled complement preserved human serum” value is 8.49 -Log EC50 and the “-Log EC50 of cAMP production; peptide incubated 3 hr with pooled human serum” value is 8.34 -Log EC50. Further, in data set [4], the “-Log EC50 of cAMP production; peptide incubated 6 hr with pooled complement preserved human serum” value was 7.79 -Log EC50, the “-Log EC50 of cAMP production; peptide incubated 6 hr with pooled human serum” value is 7.74 -Log EC50, the “-Log EC50 of cAMP production; peptide incubated 12 hr with pooled complement preserved human serum” value is 7.12 -Log EC50 and the “-Log EC50 of cAMP production; peptide incubated 12 hr with pooled human serum” value was 7.38 -Log EC50.

Source of the values: patent US20120157379A1, “Gastric Inhibitory Peptide Variants and Their Uses” (priority 2009, published 2012).
